Assay results: patent publication US7220750B2, “Bicyclic heterocycles, pharmaceutical compositions containing these compounds, their use and processes for preparing them” (Boehringer Ingelheim Pharma GmbH & Co. KG, priority 1999, dated 2007)

Molecular target: T1, human EGF-R (Homo sapiens, UniProt P00533)
T1 construct: expressed in transfected cells; host or cells: F/L-HERc cells (murine IL-3-dependent FDC-P1 line transduced with LXSN retroviral vector carrying human EGF-R cDNA; packaging line GP+E86)
Assay: Inhibition of EGF-dependent proliferation of F/L-HERc cells (Cell Titer 96 assay)
Assay type: cell-based
Conditions: F/L-HERc cells (murine IL-3-dependent line expressing human EGF-R), stimulated with EGF 20 ng/ml, 48 hours
Source text: A cell line of murine origin dependent on interleukin-3-(IL-3) which was genetically modified to express functional human EGF-R was used here. The proliferation of these cells known as F/L-HERc can therefore be stimulated either by murine IL-3 or by EGF (cf. T. von Rüden et al., EMBO J. 7, 2749–2756 (1988) and J. H Pierce et al., Science 239, 628–631 (1988)).
The starting material used for the F/L-HERc cells was the cell line FDC-P1, the production of which has been described by T. M. Dexter et al., J. Exp. Med. 152, 1036–1047 (1980). Alternatively, however, other growth-factor-dependent cells may also be used (cf., for example, J. H. Pierce et al., Science 239, 628–631 (1988); H. Shibuya et al., Cell 70, 57–67 (1992); and W. S. Alexander et al., EMBO J. 10, 3683–3691 (1991)). For expressing the human EGF-R cDNA (cf. Ullrich, A. et al. in Nature 309, 418–425 (1984)) recombinant retroviruses were used as described by T. von Rüden et al., EMBO J. 7, 2749–2756 (1988), except that the retroviral vector LXSN (cf. A. D. Miller et al., BioTechniques 7, 980–990 (1989)) was used for the expression of the EGF-R cDNA and the line GP+E86 (cf. D. Markowitz et al., J. Virol. 62, 1120–1124 (1988)) was used as the packaging cell.
F/L-HERc cells were cultivated in RPMI/1640 medium (BioWhittaker), supplemented with 10% fetal calf serum (FCS, Boehringer Mannheim), 2 mM glutamine (BioWhittaker), standard antibiotics and 20 ng/ml of human EGF (Promega), at 37° C. and 5% CO2. In order to investigate the inhibitory activity of the compounds according to the invention, 1.5×10^4 cells per well were cultivated in triplicate in 96-well dishes in the above medium (200 μl), the cell proliferation being stimulated with either EGF (20 ng/ml) or murine IL-3. The IL-3 used was obtained from culture supernatants of the cell line X63/0 mIL-3 (cf. H. Karasuyama et al., Eur. J. Immunol. 18, 97–104 (1988)). The compounds according to the invention were dissolved in 100% dimethylsulfoxide (DMSO) and added to the cultures in various dilutions, the maximum DMSO concentration being 1%. The cultures were incubated for 48 hours at 37° C.
In order to determine the inhibitory activity of the compounds according to the invention the relative cell number was measured in O.D. units using the Cell Titer 96™ Aqueous Non-Radioactive Cell Proliferation Assay (Promega). The relative cell number was calculated as a percentage of the control (F/LHERc cells without inhibitor) and the concentration of active substance which inhibits the proliferation of the cells by 50% (IC50) was derived therefrom.

T1 sequence (P00533 25-1210): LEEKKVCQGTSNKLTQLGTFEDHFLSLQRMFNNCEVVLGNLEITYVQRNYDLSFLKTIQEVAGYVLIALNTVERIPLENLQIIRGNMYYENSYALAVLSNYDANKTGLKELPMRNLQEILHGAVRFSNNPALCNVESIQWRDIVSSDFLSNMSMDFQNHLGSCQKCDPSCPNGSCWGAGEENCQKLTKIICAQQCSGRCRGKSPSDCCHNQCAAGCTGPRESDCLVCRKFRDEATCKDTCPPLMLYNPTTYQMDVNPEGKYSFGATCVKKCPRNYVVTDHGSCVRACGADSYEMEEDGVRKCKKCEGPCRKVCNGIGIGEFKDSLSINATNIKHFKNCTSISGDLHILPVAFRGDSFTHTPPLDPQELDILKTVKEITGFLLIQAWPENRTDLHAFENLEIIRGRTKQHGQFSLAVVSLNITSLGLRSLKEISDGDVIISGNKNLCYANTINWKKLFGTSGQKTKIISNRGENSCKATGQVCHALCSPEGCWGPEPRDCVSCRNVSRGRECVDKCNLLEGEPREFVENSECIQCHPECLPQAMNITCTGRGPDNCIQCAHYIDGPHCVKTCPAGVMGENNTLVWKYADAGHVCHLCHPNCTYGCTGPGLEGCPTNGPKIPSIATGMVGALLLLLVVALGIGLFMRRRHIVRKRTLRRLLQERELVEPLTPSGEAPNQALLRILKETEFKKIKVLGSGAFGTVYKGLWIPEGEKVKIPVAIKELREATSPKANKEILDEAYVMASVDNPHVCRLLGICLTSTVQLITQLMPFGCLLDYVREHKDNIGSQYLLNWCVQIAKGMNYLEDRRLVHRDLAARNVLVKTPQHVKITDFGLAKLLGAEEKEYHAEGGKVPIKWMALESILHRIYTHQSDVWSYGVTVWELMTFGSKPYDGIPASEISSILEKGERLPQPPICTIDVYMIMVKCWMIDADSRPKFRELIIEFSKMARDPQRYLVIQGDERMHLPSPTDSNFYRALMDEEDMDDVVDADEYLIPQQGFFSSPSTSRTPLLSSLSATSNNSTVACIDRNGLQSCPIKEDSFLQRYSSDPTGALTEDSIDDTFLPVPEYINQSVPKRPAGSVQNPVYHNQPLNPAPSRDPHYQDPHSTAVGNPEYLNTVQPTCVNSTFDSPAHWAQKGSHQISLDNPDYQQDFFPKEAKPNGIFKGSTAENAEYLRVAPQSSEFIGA

Compound	IC50 [nM]
C=CC(=O)Nc1cc2c(Nc3ccc(F)c(Cl)c3)ncnc2cc1OCCCC1CCN(C)CC1 [1(7), 4-[(3-Chloro-4-fluorophenyl)amino]-7-[3-(1-methylpiperidin-4-yl)propyloxy]-6-[(vinylcarbonyl)amino]quinazoline]	< 0.5
CC#CC(=O)Nc1cc2c(Nc3cccc(Br)c3)ncnc2cc1OCCCC1CCN(C)CC1 [2(3), 4-[(3-Bromophenyl)amino]-7-[3-(1-methylpiperidin-4-yl)propyloxy]-6-[(1-oxo-2-butyn-1-yl)amino]quinazoline]	0.35
O=C(C=CCN1CCOCC1)Nc1cc2c(Nc3ccc(F)c(Cl)c3)ncnc2cc1OCC1CC1 [3(1), 4-[(3-Chloro-4-fluorophenyl)amino]-6-{[4-(morpholin-4-yl)-1-oxo-2-buten-1-yl]amino}-7-cyclopropylmethoxyquinazoline]	0.2
C=CC(=O)Nc1cc2c(Nc3cccc(Br)c3)ncnc2cc1OCCCC1CCN(C)CC1 [Example 1, 4-[(3-Bromophenyl)amino]-7-[3-(1-methylpiperidin-4-yl)propyloxy]-6-[(vinylcarbonyl)amino]quinazoline]	< 0.35
CCN(CC)CC=CC(=O)Nc1cc2c(Nc3ccc(F)c(Cl)c3)ncnc2cc1OCC1CC1 [Example 3, 4-[(3-Chloro-4-fluorophenyl)amino]-6-{[4-(N,N-diethylamino)-1-oxo-2-buten-1-yl]amino}-7-cyclopropylmethoxyquinazoline]	5

Test system: not given
Assay: not given
Conditions: not given

Compound	melting point
CCN(CC)CC=CC(=O)Nc1cc2c(Nc3ccc(F)c(Cl)c3)ncnc2cc1OCC1CC1 [Example 3, 4-[(3-Chloro-4-fluorophenyl)amino]-6-{[4-(N,N-diethylamino)-1-oxo-2-buten-1-yl]amino}-7-cyclopropylmethoxyquinazoline]	~ 145 °C (dec.)
